This is an account of results in publication PMC11666819, “Isolation, Structure Elucidation, and Bioactivity Evaluation of Two Alkaloids From Piper chaba H. Stem: A Traditional Medicinal Spice and Its Chemico‐Pharmacological Aspects” (Food Science & Nutrition, 2024).

Structures are written as SMILES. Where “and” joins values, the source holds several entries; their conditions need not be identical. Equal values may be shown once.

For assay [1], the system named is Bacillus cereus [clinical isolates]. The assay is described as follows: Disk diffusion test. Format: cell-based.
The test system of assay [2] is Bacillus megaterium [ATCC 25918]. The assay is described as follows: Disk diffusion test. As to conditions: for Zone of Inhibition: Bacillus megaterium, standards 30 μg/disk; for zone of inhibition at 100 µg/disc: Priestia megaterium, ATCC25918. It is filed as cell-based.
Assay [3] concerns Salmonella typhi [clinical isolates]. In words: Disk diffusion test. It is filed as cell-based. As to conditions: for Zone of Inhibition: Salmonella typhi; for zone of inhibition at 100 µg/disc: Salmonella enterica, TYPHI.
For assay [4], the system named is Bacillus subtilis [ATCC6633]. The assay is described as follows: Disk diffusion test. It is filed as cell-based. As to conditions: for Zone of Inhibition: standards 30 μg/disk; for zone of inhibition at 100 µg/disc: ATCC6633. A general note: In agar diffusion tests the substance spreads into inoculated agar from a disc or well.
Assay [5] has as its system Pseudomonas aeruginosa [ATCC27833]. The assay is described as follows: Disk diffusion test. Format: cell-based. The settings on record: for zone of inhibition at 100 µg/disc: ATCC27833.
Assay [6] has as its system Salmonella paratyphi [clinical isolates]. The assay is described as follows: microbe, parasite or virus in culture. It is filed as cell-based. As to conditions: for Zone of Inhibition: Salmonella paratyphi, standards 30 μg/disk; for zone of inhibition at 100 µg/disc: Salmonella enterica, PARATYPHI
Assay [7] relates to Vibrio mimicus [clinical isolates]. The assay is described as follows: Disk diffusion test. Format: cell-based. The settings on record: for Zone of Inhibition: standards 30 μg/disk.
Assay [8] concerns Vibrio parahemolyticus [clinical isolates]. The assay is described as follows: Disk diffusion test. It is filed as cell-based. The settings on record: for Zone of Inhibition: Vibrio parahemolyticus, standards 30 μg/disk; for zone of inhibition at 100 µg/disc: Vibrio.
For assay [9], the system named is Escherichia coli [ATCC25922]. In words: Disk diffusion test. Format: cell-based. As to conditions: for Zone of Inhibition: standards 30 μg/disk; for zone of inhibition at 100 µg/disc: ATCC25922.
The subject of assay [10] is Sarcina lutea [clinical isolates]. The assay is described as follows: Disk diffusion test. The settings on record: for Zone of Inhibition: Sarcina lutea, standards 30 μg/disk; for zone of inhibition at 100 µg/disc: Micrococcus luteus. Format: cell-based.
Assay [11] has as its system Shigella dysenteriae [clinical isolates]. The assay is described as follows: Disk diffusion test. Format: cell-based. As to conditions: for Zone of Inhibition: standards 30 μg/disk.
Assay [12] has as its system Staphylococcus aureus [ATCC25923]. The assay is described as follows: Disk diffusion test. Format: cell-based. As to conditions: for Zone of Inhibition: standards 30 μg/disk; for zone of inhibition at 100 µg/disc: ATCC25923.
Assay [13] relates to castor oil‐induced diarrhea. In words: Castor oil‐induced diarrhea test. Format: in vivo, Swiss albino mice. The settings on record: mice; for Number of diarrheal feces: mean. The protocol:
(§1) To carry out the in vivo experiment, Swiss albino mice aged between 4 and 5 weeks, of both genders, were obtained from the Animal Resource Branch of the International Centre for Diarrheal Diseases and Research, Bangladesh (ICDDR, B) (the size of the animal population, n = 5). The mice were housed in standard polypropylene cages with a 12‐h light–dark cycle. Additionally, optimal conditions such as a controlled room temperature of 24°C ± 2°C and a relative humidity of 60%–70% were upheld. They were provided with ICDDR, B‐formulated rodent food, and water ad libitum. The research protocol was approved by the Animal Ethics Committee of the State University of Bangladesh, Dhaka (2023‐01‐04/SUB/A‐ ERC/003) before initiating the study. Throughout the experiments, strict adherence to guidelines for the use and care of laboratory animals was ensured. Recognizing the sensitivity of mice to environmental variations, they were acclimatized to the experimental conditions for a minimum of 3–4 days before the commencement of the experiment. Furthermore, all ethical protocols and regulations were strictly adhered to during the design and execution of the research experiments. At the end of the experiment, an anesthesia overdose (Ketamine HCl [100 mg/kg] and Xylazine [7.5 mg/kg]) through the intraperitoneal route was given to the mice models followed by euthanasia, following the previously delineated protocols established by Zimmermann ([1983]) and Davis ([2001]) (Alam et al. [2021]; Davis [2001]; Zimmermann [1983]). All tests were carried out in abiding with the guidelines for the care and use of laboratory animals, as approved by the institutional ethical committee.
The antidiarrheal potential of the compounds Chabamide I and Chingchengenamide A isolated from P. chaba was scrutinized employing the castor oil‐induced method, as delineated by Shoba and Thomas ([2001]) with slight adjustments. In this investigation, mice were judiciously randomized into four cohorts, each consisting of six subjects. Before experimentation, the mice underwent an overnight fasting period with unrestricted access to water.
Group I, designated as the control, received vehicle solutions comprising distilled water with 1% Tween‐80. […] Groups III and IV, representing the test cohorts, received isolated phytochemicals individually at oral dosages of 10 and 20 mg/kg body weight, respectively. An additional 0.5 mL of castor oil was applied to all subjects 1 h after the initial application of test samples. Subsequently, individual mice were placed in enclosures with floors lined with transparent paper.
Throughout the observational timeframe, diverse parameters were meticulously monitored, encompassing the initiation of diarrhea, quantification of wet stools in terms of number and weight, and the cumulative number and weight of fecal output. The observation persisted until 4 h […] the subsequent application of castor oil, with the calculated mean values being designated as the definitive results.

For assay [14], the system named is eight tested human tumor cell lines. The arrangement: method as in Wang et al. [2014]. The settings on record: ref Wang et al. [2014]; cited from earlier work.
Assay [15] deals with acetic acid‐induced writhing. In words: Acetic acid‐induced writhing test. It is filed as in vivo, Swiss albino mice. As to conditions: mice; for Number of writhing: mean. The protocol:
as §1
The analgesic efficacy of the isolated compounds, Chabamide I and Chingchengenamide A, was assessed utilizing the acetic acid‐induced writhing test, following the methodology outlined by Ahmad et al. ([2010]). […] Conversely, Groups III and IV received individual alkaloids at doses of 10 and 20 mg/kg; b.w, p.o., respectively. Subsequently, an intraperitoneal injection of acetic acid solution (0.6% v/v) was administered. The frequency of writhing responses was meticulously recorded at 5‐min intervals post‐acetic acid injection and monitored over 25 min.
For orientation: Writhing tests count abdominal constrictions after an irritant is injected.

For orientation: zone of inhibition means the extent of the growth-free halo in a diffusion test.

On to `CC1(C)S[C@@H]2[C@H](NC(=O)[C@H](N)c3ccc(O)cc3)C(=O)N2[C@H]1C(=O)O` [Amoxicillin, amoxicillin, reference compound], for which the “Zone of Inhibition” value is given as 33 mm in [1] (standards 30 μg/disk); 29 mm in [2]; 31 mm in assay [3] (standards 30 μg/disk); 26 mm in assay [4]; 38 mm in assay [5] (standards 30 μg/disk); 32 mm in assay [6]. For the same compound, the “Zone of Inhibition” value came out at 28 mm in assay [7]; 35 mm in assay [8]; 37 mm in [9]; 32 mm in assay [10]; 30 mm in assay [11]; 36 mm in [12].
With `CC[C@H]1OC(=O)[C@H](C)[C@@H](O[C@H]2C[C@@](C)(OC)[C@@H](O)[C@H](C)O2)[C@H](C)[C@@H](O[C@@H]2O[C@H](C)C[C@H](N(C)C)[C@H]2O)[C@](C)(O)C[C@@H](C)CN(C)[C@H](C)[C@@H](O)[C@]1(C)O` [Azithromycin, azithromycin, reference compound], the “Zone of Inhibition” value in [1] (standards 30 μg/disk) amounted to 35 mm; in assay [2], 33 mm; in assay [3] (standards 30 μg/disk), 38 mm; in assay [4], 32 mm; in assay [5] (standards 30 μg/disk), 42 mm; in assay [6], 32 mm. The “Zone of Inhibition” value came out at 33 mm in [7]; 40 mm in [8]; 39 mm in [9]; 37 mm in [10]; 38 mm in assay [11]; 39 mm in assay [12].
`CC(C)CNC(=O)C1C(C(=O)N2CCCCC2)C=CC(c2ccc3c(c2)OCO3)C1c1ccc2c(c1)OCO2` (stereo not drawn) [Chabamide I]: the “% reduction of diarrhea” value came to 43.33% in assay [13] (10 mg/kg b.w., oral) and 46.67% in assay [13] (20 mg/kg b.w., oral). For the same compound, the “Number of diarrheal feces” value is recorded as 5.67 in [13] (10 mg/kg b.w., oral) and 5.33 in assay [13] (20 mg/kg b.w., oral). Also, the zone of inhibition at 100 µg/disc was found to be 20 mm in assay [1]; 15 mm in assay [2]; 21 mm in [3]; 11 mm in assay [4]; 21 mm in assay [5]; 18 mm in assay [6]. Besides, the zone of inhibition at 100 µg/disc was 15 mm in assay [7]; 16 mm in assay [8]; 18 mm in assay [9]; 16 mm in [10]; 18 mm in [11]; 18 mm in assay [12]. In addition, the “Zone of Inhibition” value in assay [1] (100 μg/disk), in assay [3] (100 μg/disk) and in assay [5] (100 μg/disk) was “notable antimicrobial activity” in each case. Besides, in assay [14], the “inhibitory effectiveness against human tumor cell lines” value is “inhibitory effectiveness against at least one of eight tested human tumor cell lines”. In addition, the “% reduction of writhing” value in assay [15] (10 mg/kg b.w., p.o.) was 40.82%; in [15] (20 mg/kg b.w., p.o.), 53.06%. The Number of writhing was found to be 9.67 in [15] (10 mg/kg b.w., p.o.) and 7.67 in [15] (20 mg/kg b.w., p.o.).
On to `CC(C)CNC(=O)/C=C/C=C/CCc1ccc2c(c1)OCO2` [Chingchengenamide A], for which the “% reduction of diarrhea” value in assay [13] (10 mg/kg b.w., oral) stood at 33.33%; in assay [13] (20 mg/kg b.w., oral), 40%. Also, the “Number of diarrheal feces” value in assay [13] (10 mg/kg b.w., oral) was found to be 6.67; in assay [13] (20 mg/kg b.w., oral), 6. In addition, the zone of inhibition at 100 µg/disc in assay [1] worked out at 17 mm; in assay [2], 14 mm; in [3] it was 12 mm; in assay [4], 13 mm; in [5], 21 mm; in [6], 14 mm. Also, the zone of inhibition at 100 µg/disc in assay [7] turned out to be 16 mm; in assay [8], 15 mm; in assay [9], 17 mm; in assay [10] it was 16 mm; in [11], 15 mm; in assay [12], 15 mm. Moreover, the “inhibitory effectiveness against human tumor cell lines” value in assay [14] is on record as “inhibitory effectiveness against at least one of eight tested human tumor cell lines”. In addition, the “% reduction of writhing” value in [15] (10 mg/kg b.w., p.o.) was found to be 34.69%; in assay [15] (20 mg/kg b.w., p.o.), 42.86%. Besides, the Number of writhing in assay [15] (10 mg/kg b.w., p.o.) is 10.67; in assay [15] (20 mg/kg b.w., p.o.) it was 9.33.
Consider `O=C(O)Cc1ccccc1Nc1c(Cl)cccc1Cl` [Diclofenac Sodium, diclofenac sodium, reference compound], for which the “% reduction of writhing” value in assay [15] (standard, 5 mg/kg b.w., 5 mg/kg) was 80% and 77.55%. This compound also yielded a Number of writhing in [15] (standard, 5 mg/kg b.w.) of 3.67.
On to `CN(C)C(=O)C(CCN1CCC(O)(c2ccc(Cl)cc2)CC1)(c1ccccc1)c1ccccc1` [Loperamide, loperamide, reference compound], for which the “Number of diarrheal feces” value in [13] (standard, 5 mg/kg b.w.) stood at 2.
